US20040248918A1, “N-phenyl-2-pyrimidine-amine derivatives and process for the preparation thereof” (IL YANG PHARM. CO., LTD., priority 2003, published 2004)

Legend:
[1] = system: L1210 cancer cell (leukemia cell line); experiment: Growth inhibition of L1210 cancer cell (MTT); format: cell-based; conditions: Mus musculus
Experimental: (§1) In the present experiment, the inhibitory activity of the compound of formula (1) was determined against the growth of K562 cancer cell. First, the cells were allowed to stand in RPMI (Roswell Park Memorial Institute)-1640 medium containing 10% (v/v) fetal bovine serum in an incubator of 37° C. and 5% by volume of CO2. The cancer cells (1000 cells) were transferred to a 96-well plate, and the test compound was diluted. The plate was allowed to stand under the above mentioned conditions for 2 days. After this treatment, to the cells was added 0.2% MTT (3-[4,5-dimethylthiazol-2-yl]-2,5-diphenyltetrazolium bromide) solution, and the resulting mixture was allowed to stand under the constant temperature-condition for 4 hours. The supernatant was removed to leave the resulting crystal. DMSO was added to dissolve the crystal, and the absorbance of the solution was measured at 540 nm. IC50 value was calculated using a computer system according to the following formula: […]
In the present experiment, the inhibitory activity of the compound of formula (1) was determined against the growth of L1210 cancer cell. The test was performed according to the same procedure as Experiment 1.

[2] = system: gastric cancer cell (KATO III); experiment: Growth inhibition of KATO III (MTT); format: cell-based; design: IC50 as fraction of that of Imatinib mesylate: unit not given beside the values; conditions: for IC50: Homo sapiens
Experimental: as §1
(§2) The test was performed according to the same procedure as Experiment 1.

lung cancer cell (A549) = experiment: Growth inhibition of A549 (MTT); format: cell-based; design: IC50 as fraction of that of Imatinib mesylate: unit not given beside the values; conditions: for IC50: Homo sapiens
Experimental: as §1, §2

hepatoma cell (SNU-182) = experiment: Growth inhibition of SNU-182 (MTT); format: cell-based; design: IC50 as fraction of that of Imatinib mesylate: unit not given beside the values; conditions: for IC50: Homo sapiens
Experimental: as §1, §2

[3] = Acute toxicity test in mice (oral administration); conditions: both sexes, ICR, mouse, in vivo, 2000 mg/kg; mice, oral
Experimental: (§3) In order to determine the acute toxicity of the compound of the present invention when the compound is orally administered, mice (ICR, 24˜26 g) were fasted for 16 hours. One group consists of 10 males and 10 females. The first group is the control group and physiological saline was administered per oral to this group. The compounds of Examples 2 and 4 were orally administered in a dosage of 2000 mg/kg, the maximum dosage in acute toxicity test, to each test group. […] On the last day of the test, 14th day from the start, the mice were subjected to an autopsy in order to examine changes of the internal organs. […] This means that the compounds of the present invention including those of Examples 2 and 4 are safe in the aspect of acute toxicity.

mice (ICR) [4] = experiment: Acute toxicity test in mice (oral administration); conditions: mouse, in vivo, po, 2000 mg/kg
Experimental: as §3

sarcoma-180 = experiment: Anti-cancer activity in sarcoma animal model; format: in vivo, ICR mouse; conditions: day 30; for Average tumor weight (Mean ± S.E.): three times at intervals of 4 days, in g (unit assumed)
Experimental: The anti-cancer activity against sarcoma-180 was determined using ICR mouse (22˜25 g, male). Sarcoma-180 (0.1 ml; 5×10^7 cells/ml) was hypodermically implanted to the left inguinal area of the mouse. After 72 hours from the hypodermic implantation, physiological saline was intravenously administered to the control group. For the test groups, the compound of Example 10 dissolved in physiological saline in a concentration of 25 or 50 mg/kg was intravenously administered three times at intervals of 4 days. On the 30th day from the implantation of the tumor cell, the mice were sacrificed to take out the induced solid tumors. The solid tumors were weighed, the average weight of the tumors was obtained, and the percent inhibition ratio was calculated according to the following formula:
Inhibition ratio (I.R.) (%)=[(Cw−Tw)/Cw]×100
I.R. represents the percent inhibition ratio,
Cw represents the average weight of tumor of the control group; and
Tw represents the average weight of tumor of the test group.

[5] = Acute toxicity test in mice (intravenous administration); format: in vivo; conditions: both sexes, ICR, mouse, in vivo, iv; mice, intravenously administered
Experimental: (§4) In this test, the acute toxicity of the compound of the present invention when the compound is intravenously administered was determined on mice (ICR, 24˜26 g). One group consists of 10 males and 10 females. The first group is the control group and physiological saline was intravenously administered to this group. The compound of Example 10 was intravenously administered in dosages of 25, 50, 75, and 100 mg/kg, respectively, to each test group. […] On the last day of the test, 14th day from the start, the mice were subjected to an autopsy in order to examine changes of the internal organs. […] No mouse died in these test groups. Further, in the test group of 100 mg/kg dosage, 8 mice among 10 died within 10 minutes after the administration.

mice (ICR) [6] = experiment: as above; format: in vivo
Experimental: as §4

Row | Structure (SMILES) | IC50 [1] | IC50 [2] | IC50 (lung cancer cell (A549)) | IC50 (hepatoma cell (SNU-182)) | LD50 at 14 days [3] | Clinical conditions and autopsy (mice (ICR) [4]) | Mortality during the test period (mice (ICR) [4]) | IC50 as fraction of that of Imatinib mesylate [2] | IC50 as fraction of that of Imatinib mesylate (lung cancer cell (A549)) | IC50 as fraction of that of Imatinib mesylate (hepatoma cell (SNU-182)) | Percent Inhibition Ratio (I.R.) (sarcoma-180; 25 mg/kg i.v.) | Average tumor weight (Mean ± S.E.) (sarcoma-180; 25 mg/kg i.v.) | Percent Inhibition Ratio (I.R.) (sarcoma-180; 50 mg/kg i.v.) | Average tumor weight (Mean ± S.E.) (sarcoma-180; 50 mg/kg i.v.) | LD50 at 14 days [5] | Clinical conditions and autopsy (mice (ICR) [6]; 25 mg/kg i.v., 14 days) | Mice died (mice (ICR) [6]; 100 mg/kg i.v., within 10 minutes after the administration) | Clinical conditions (mice (ICR) [6]; 50 and 75 mg/kg i.v.) | Mortality (mice (ICR) [6]; 50 and 75 mg/kg i.v.) | Time to recovery from trembling (mice (ICR) [6]; 50 and 75 mg/kg i.v.)
1 | CS(=O)(=O)O.Cc1ccc(NC(=O)c2ccc(CNN3CCN(C)CC3)cc2)cc1Nc1nccc(-c2cccnc2)n1 [Example 4, 4-(4-methylpiperazin-1-ylaminomethyl)-N-[4-methyl-3-(4-(pyridin-3-yl)pyrimidin-2-yl)aminophenyl]benzamide methanesulfonate] | 26.9 µg/mL | 32.4 µg/mL | 46.6 µg/mL | 48 µg/mL | ≥ 2000 mg/kg | neither abnormal response nor specific autopsy result was observed | no mouse died | – | – | – | – | – | – | – | – | – | – | – | – | –
2 | CN1CCCN(Cc2ccc(C(=O)Nc3ccc(Nc4nccc(-c5cccnc5)n4)cc3)cc2)CC1.CS(=O)(=O)O [Example 10, 4-(4-methylhomopiperazin-1-ylmethyl)-N-[4-(4-(pyridin-3-yl)pyrimidin-2-yl)aminophenyl]benzamide methanesulfonate] | 3.4 µg/mL | 3.26 µg/mL | 3.5 µg/mL | 7.94 µg/mL | – | – | – | 1/10 | 1/10 | 1/5 | 36.1% | 2.09 ± 1.4 | 63.0% | 1.21 ± 1.2 | 75 to 100 mg/kg | neither abnormal response nor specific autopsy | 8 mice among 10 | weak trembling immediately after the administration | No mouse died | ≤ 1 h
